Columns and labels:
[1] = target: Voltage-dependent L-type calcium channel subunit alpha-1D (Homo sapiens, UniProt Q01668); test: Agonist activity at L-type Cav1.3 expressed in tsA201 cell assessed as calcium current by whole-cell patch clamp method; assay type: functional, cell-based
[2] = target: Cyclin-dependent kinase 2/cyclin A (Homo sapiens, UniProt P24941); test: Inhibition of human Cdk2/cyclin A activity; assay type: protein-complex assay
[3] = target: Cyclin-dependent kinase 5/CDK5 activator 1 (Homo sapiens, UniProt Q00535); test: Inhibition of human Cdk5/p35 activity; assay type: protein-complex assay
[4] = target: Cyclin-dependent kinase 1/cyclin B1 (Homo sapiens, UniProt P06493); test: Inhibition of human Cdk1/cyclin B activity; assay type: protein-complex assay
[5] = target: T1, Voltage-dependent N-type calcium channel subunit alpha-1B (Homo sapiens, UniProt Q00975); test: Ratio of (R)-roscovitine EC50 to compound EC50 for N-type Cav2.2 channel
Target sequence in this assay (Q00975 whole entry, looked up): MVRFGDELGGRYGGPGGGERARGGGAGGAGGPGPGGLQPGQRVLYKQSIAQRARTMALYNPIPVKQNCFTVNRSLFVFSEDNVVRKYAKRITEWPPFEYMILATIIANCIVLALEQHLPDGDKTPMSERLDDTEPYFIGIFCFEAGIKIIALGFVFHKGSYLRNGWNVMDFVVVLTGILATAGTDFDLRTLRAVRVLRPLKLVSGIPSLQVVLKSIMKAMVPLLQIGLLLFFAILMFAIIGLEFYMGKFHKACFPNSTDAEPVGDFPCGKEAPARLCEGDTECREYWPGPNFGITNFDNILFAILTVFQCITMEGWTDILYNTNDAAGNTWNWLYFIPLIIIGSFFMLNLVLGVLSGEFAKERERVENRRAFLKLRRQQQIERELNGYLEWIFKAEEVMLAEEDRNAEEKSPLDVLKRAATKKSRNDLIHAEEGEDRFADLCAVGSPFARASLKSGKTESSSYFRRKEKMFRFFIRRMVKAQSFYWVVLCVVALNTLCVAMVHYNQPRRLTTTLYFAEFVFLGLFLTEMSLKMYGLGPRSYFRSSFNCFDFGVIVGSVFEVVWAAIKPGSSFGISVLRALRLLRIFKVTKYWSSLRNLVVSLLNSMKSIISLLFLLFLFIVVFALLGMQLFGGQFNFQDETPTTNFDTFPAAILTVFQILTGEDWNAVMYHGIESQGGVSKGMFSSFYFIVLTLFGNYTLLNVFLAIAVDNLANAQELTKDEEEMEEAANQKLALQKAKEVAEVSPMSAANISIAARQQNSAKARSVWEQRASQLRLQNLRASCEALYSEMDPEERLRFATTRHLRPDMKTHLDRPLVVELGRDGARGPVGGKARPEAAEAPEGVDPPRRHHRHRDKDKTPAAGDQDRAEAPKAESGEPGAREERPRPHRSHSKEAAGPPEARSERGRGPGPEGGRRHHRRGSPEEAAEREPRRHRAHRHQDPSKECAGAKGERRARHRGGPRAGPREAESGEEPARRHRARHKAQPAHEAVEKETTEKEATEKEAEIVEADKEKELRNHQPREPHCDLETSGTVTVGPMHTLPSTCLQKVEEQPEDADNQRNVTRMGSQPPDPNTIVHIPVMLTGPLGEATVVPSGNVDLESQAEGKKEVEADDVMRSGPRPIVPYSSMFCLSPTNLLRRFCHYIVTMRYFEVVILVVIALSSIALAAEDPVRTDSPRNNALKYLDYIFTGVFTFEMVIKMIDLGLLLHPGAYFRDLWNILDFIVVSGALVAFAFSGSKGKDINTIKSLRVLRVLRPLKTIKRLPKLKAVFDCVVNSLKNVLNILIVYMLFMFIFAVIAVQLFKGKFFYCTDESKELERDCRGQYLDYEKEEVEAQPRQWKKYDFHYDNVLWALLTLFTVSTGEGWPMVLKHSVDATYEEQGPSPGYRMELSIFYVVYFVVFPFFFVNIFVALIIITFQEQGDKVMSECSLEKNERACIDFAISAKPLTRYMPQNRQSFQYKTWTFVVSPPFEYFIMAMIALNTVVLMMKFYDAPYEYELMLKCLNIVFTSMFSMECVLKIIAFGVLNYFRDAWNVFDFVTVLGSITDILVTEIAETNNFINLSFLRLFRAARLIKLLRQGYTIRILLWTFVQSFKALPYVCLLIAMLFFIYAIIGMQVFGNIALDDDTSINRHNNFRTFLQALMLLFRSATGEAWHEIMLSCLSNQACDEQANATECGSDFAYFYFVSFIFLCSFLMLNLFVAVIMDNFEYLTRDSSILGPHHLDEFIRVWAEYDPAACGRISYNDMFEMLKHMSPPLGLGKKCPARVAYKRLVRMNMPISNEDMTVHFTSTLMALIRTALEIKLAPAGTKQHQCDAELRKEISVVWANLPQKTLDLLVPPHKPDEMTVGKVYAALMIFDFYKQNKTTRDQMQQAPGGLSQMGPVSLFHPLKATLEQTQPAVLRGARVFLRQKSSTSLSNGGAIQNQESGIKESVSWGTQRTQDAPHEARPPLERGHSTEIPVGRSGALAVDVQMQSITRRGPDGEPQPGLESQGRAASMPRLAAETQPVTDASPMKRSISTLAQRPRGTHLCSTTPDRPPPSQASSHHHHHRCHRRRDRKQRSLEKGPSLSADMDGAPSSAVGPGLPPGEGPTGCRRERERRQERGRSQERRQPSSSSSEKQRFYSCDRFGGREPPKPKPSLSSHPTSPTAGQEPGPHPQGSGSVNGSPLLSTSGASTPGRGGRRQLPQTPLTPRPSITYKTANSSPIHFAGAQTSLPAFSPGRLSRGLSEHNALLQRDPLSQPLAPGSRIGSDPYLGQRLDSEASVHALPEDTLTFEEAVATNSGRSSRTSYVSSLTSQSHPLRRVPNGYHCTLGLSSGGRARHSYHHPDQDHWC

[6] = target: T1, Voltage-dependent N-type calcium channel subunit alpha-1B; test: Agonist activity at N-type Cav2.2 channel expressed in tsA201 cell assessed as calcium current by whole-cell patch clamp method; assay type: functional, cell-based
Target sequence in this assay (Q00975 whole entry): as the sequence (Q00975 whole entry, looked up) above

[7] = target: Voltage-dependent P/Q-type calcium channel subunit alpha-1A (Homo sapiens, UniProt O00555); test: Agonist activity at P/Q-type Cav2.1 expressed in tsA201 cell assessed as calcium current by whole-cell patch clamp method; assay type: functional, cell-based
[8] = target: Myosin light chain kinase, smooth muscle (Homo sapiens, UniProt Q15746); test: Inhibition of human MLCK
[9] = target: Mitogen-activated protein kinase 1 (Homo sapiens, UniProt P28482); test: Inhibition of human MAPK1
Mitogen-activated protein kinase 1, sequence (P28482 whole entry): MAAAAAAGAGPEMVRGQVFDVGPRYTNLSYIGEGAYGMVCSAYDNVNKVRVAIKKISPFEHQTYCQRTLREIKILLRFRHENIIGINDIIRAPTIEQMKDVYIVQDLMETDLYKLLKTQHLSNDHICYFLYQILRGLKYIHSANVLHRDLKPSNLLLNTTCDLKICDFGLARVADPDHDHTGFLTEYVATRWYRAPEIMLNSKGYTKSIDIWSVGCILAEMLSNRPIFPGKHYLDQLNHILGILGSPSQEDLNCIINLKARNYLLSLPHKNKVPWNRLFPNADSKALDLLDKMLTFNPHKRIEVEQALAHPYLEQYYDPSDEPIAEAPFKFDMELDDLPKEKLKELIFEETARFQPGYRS

Voltage-dependent L-type calcium channel subunit alpha-1D, sequence (Q01668 whole entry): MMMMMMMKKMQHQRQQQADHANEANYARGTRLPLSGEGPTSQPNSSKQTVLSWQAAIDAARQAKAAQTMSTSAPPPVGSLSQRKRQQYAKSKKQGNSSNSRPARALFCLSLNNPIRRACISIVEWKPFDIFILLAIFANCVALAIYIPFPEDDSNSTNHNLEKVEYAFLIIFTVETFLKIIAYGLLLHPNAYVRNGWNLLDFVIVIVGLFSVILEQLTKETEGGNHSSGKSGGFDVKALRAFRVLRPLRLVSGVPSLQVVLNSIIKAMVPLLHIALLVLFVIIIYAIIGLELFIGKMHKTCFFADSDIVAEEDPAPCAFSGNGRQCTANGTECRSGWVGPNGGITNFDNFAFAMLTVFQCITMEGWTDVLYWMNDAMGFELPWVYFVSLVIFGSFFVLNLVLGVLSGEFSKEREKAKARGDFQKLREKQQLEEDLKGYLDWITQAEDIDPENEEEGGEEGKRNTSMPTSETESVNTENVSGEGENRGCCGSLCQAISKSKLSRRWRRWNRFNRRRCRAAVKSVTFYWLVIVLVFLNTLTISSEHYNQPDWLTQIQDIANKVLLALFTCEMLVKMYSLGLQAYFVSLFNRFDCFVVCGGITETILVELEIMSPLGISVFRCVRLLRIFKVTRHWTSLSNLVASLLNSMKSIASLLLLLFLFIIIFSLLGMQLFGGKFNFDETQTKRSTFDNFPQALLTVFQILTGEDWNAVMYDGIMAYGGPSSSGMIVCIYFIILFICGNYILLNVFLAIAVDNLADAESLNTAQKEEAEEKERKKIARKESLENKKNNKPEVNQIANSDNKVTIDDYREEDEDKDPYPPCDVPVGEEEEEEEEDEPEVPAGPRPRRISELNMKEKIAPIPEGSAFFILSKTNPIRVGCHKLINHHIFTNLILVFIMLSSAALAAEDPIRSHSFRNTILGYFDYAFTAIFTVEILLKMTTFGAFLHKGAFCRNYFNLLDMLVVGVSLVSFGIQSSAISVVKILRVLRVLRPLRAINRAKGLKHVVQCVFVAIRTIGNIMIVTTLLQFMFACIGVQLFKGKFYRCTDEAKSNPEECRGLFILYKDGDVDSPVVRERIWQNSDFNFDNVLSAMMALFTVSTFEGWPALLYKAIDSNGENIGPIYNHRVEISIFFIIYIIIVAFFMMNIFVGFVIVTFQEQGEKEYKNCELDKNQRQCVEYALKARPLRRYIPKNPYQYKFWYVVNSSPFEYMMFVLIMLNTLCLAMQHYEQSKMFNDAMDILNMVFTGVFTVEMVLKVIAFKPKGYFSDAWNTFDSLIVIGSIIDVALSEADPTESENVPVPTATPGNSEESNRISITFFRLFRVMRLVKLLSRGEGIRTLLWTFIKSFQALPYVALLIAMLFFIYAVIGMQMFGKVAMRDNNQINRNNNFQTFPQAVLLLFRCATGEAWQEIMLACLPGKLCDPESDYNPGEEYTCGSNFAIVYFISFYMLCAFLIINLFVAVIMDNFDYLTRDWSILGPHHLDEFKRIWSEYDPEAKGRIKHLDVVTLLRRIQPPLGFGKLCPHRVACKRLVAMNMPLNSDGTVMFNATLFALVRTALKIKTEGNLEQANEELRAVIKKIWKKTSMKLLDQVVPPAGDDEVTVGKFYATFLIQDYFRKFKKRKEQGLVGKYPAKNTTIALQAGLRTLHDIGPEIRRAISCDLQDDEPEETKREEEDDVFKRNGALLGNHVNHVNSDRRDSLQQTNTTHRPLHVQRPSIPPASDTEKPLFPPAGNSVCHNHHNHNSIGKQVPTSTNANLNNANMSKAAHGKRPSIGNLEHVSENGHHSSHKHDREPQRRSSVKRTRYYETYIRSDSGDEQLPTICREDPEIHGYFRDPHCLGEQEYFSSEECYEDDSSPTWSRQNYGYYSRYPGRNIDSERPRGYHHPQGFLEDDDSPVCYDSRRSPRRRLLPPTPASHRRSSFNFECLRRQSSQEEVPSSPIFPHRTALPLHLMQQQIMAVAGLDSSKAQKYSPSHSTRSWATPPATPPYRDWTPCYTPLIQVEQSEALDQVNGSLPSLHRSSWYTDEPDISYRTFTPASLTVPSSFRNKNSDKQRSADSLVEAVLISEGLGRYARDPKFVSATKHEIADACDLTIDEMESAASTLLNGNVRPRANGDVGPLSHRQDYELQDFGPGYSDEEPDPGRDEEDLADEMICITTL

Structure (SMILES)	EC50 [6]	also measured
CCCn1cnc2c(NCc3ccccc3)nc(N[C@H](CC)CO)nc21	14.2 µM	–
CC(C)n1cnc2c(NCc3ccccc3)nc(NCCCO)nc21 [BOHEMINE]	> 1000 µM	–
CCCn1cnc2c(NCCc3ccccc3)nc(N[C@H](CC)CO)nc21	> 100 µM	–
CCCn1cnc2c(Nc3ccccc3)nc(N[C@H](CC)CO)nc21	> 100 µM	–
CC[C@H](CO)Nc1nc(NC(c2ccccc2)c2ccccc2)c2ncn(C)c2n1	> 100 µM	–
CC[C@H](CO)Nc1nc(NC(c2ccccc2)c2ccccc2)c2ncn(C(C)C)c2n1	> 100 µM	–
CCCn1cnc2c(NCc3ccc(C(F)(F)F)cc3)nc(N[C@H](CC)CO)nc21	> 100 µM	–
CC[C@H](CO)Nc1nc(N(C)Cc2ccccc2)c2ncn(C(C)C)c2n1	> 1000 µM	–
CC(C)n1cnc2c(NCc3ccccc3)nc(NCCO)nc21	> 1000 µM	–
CCCn1cnc2c(NC(c3ccccc3)c3ccccc3)nc(N[C@H](CC)CO)nc21	> 100 µM	–
CCCn1cnc2c(NCc3ccc(-c4ccccc4)cc3)nc(N[C@H](CC)CO)nc21	> 100 µM	–
CC[C@H](CO)Nc1nc(NCc2ccccc2)c2ncn(C)c2n1	> 70 µM	–
O=Nc1c(-c2c(O)[nH]c3ccccc23)[nH]c2ccccc12 [INDIRUBIN-3-MONOXIME]	> 1000 µM	–
CC[C@H](CO)Nc1nc(NCC2CC2)c2ncn(C(C)C)c2n1	> 100 µM	–
CCCn1cnc2c(NCc3cccnc3)nc(N[C@H](CC)CO)nc21	> 100 µM	–
CC[C@H](CO)Nc1nc(NCc2ccc(C)s2)c2ncn(C)c2n1	30 µM	EC50 [2]: 3.04 µM
CC[C@H](CO)Nc1nc(NCc2cccc(C(F)(F)F)c2)c2ncn(C(C)C)c2n1	> 100 µM	–

Further lines, with some results ahead:

EC50 [6]	Structure (SMILES)	also measured
7.21 µM	CCCn1cnc2c(NCc3ccc(C)s3)nc(N[C@H](CC)CO)nc21	EC50 [1]: > 100 µM; EC50 [2]: 3.29 µM; EC50 [3]: 3.03 µM; EC50 [4]: 20.6 µM; Ratio EC50 [5]: 4; EC50 [7]: 8.8 µM; EC50 [8]: > 20 µM; EC50 [9]: > 20 µM
> 100 µM	CC[C@H](CO)Nc1nc(NCCc2ccccc2)c2ncn(C(C)C)c2n1	–
> 1000 µM	CC[C@H](CO)Nc1nc(N(Cc2ccccc2)Cc2ccccc2)c2ncn(C(C)C)c2n1	–
> 100 µM	CC[C@H](CO)Nc1nc(NCc2ccc(-c3ccccc3)cc2)c2ncn(C(C)C)c2n1	–
80 µM	CC[C@H](CO)Nc1nc(NCc2ccccc2O)c2ncn(C(C)C)c2n1 [OLOMOUCINE II]	–
11.3 µM	CC[C@H](CO)Nc1nc(NCc2ccc(C)s2)c2ncn(C(C)C)c2n1	–
> 100 µM	CC[C@H](CO)Nc1nc(NCCc2ccccc2)c2ncn(C)c2n1	–
> 1000 µM	Cn1cnc2c(NCc3ccccc3)nc(NCCO)nc21 [OLOMOUCINE]	–
> 100 µM	CC[C@H](CO)Nc1nc(NCc2ccc(-c3ccccc3)cc2)c2ncn(C)c2n1	–
< 100 µM	CC[C@H](CO)Nc1nc(NCc2ccccc2)n2ncc(C(C)C)c2n1	–
> 100 µM	CC[C@H](CO)Nc1nc(NCc2cccnc2)c2ncn(C)c2n1	–
> 100 µM	CCCn1cnc2c(NCC3CC3)nc(N[C@H](CC)CO)nc21	EC50 [2]: 3.63 µM
> 100 µM	CC[C@H](CO)Nc1nc(NCc2cccnc2)c2ncn(C(C)C)c2n1	–
> 1000 µM	CN(C)CCNc1nc(NCc2ccccc2)c2ncn(C)c2n1	–
> 1000 µM	Cn1cnc2nc(NCCO)nc(NCc3ccccc3)c21	–
> 1000 µM	O=c1[nH]c2ccccc2c2[nH]c3ccc(Br)cc3c12	–
> 100 µM	CC[C@H](CO)Nc1nc(Nc2ccccc2)c2ncn(C)c2n1	–
> 100 µM	CC[C@H](CO)Nc1nc(NCC2CC2)c2ncn(C)c2n1	–
